Key:
[1] = tested on: Winter wheat (Kampa race) seeds; test: Seed germination test of treated winter wheat seeds (rolled in paper); assay type: in vivo; conditions: 3x50 seeds, 6 days at 22° C.
Method in brief: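 Seeds were disinfected with fludioxonil-containing Beret Gold (2 ml per kg seed) and coated with Sepiret® for formulations unsuitable for coating. Germination of 3×50 seeds rolled in paper was scored after 6 days at continuous 22° C. under a 16 hours light regime.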

[2] = tested on: Deroceras reticulatum (grey field slug); test: Example 1: pot test, treated winter wheat seed with 5 adult slugs per pot, 14 days; assay type: in vivo
Method in brief: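 Fludioxonil-disinfected winter wheat seed (Kampa, 40 per pot) sown on quartz sand over potting soil with 5 adult slugs per pot; ±15° C., ±90% RH, 12 h light/12 h dark, 4 replicates. Damaged seeds, plants, dead slugs and fecal pellets counted up to day 14; F-tests and Student-tests.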

[3] = 2 ml formulated per kg seed, 2 days after sowing
[4] = 2 ml formulated per kg seed, 3 days after sowing
[5] = 2 ml formulated per kg seed, 7 days after sowing
[6] = 2 ml formulated per kg seed, 10 days after sowing
[7] = 2 ml formulated per kg seed, 14 days after sowing
[8] = 4 ml formulated per kg seed, 2 days after sowing
[9] = 4 ml formulated per kg seed, 3 days after sowing
[10] = 4 ml formulated per kg seed, 7 days after sowing
[11] = 4 ml formulated per kg seed, 10 days after sowing
[12] = 4 ml formulated per kg seed, 14 days after sowing
[13] = 10 ml formulated per kg seed, 2 days after sowing
[14] = 10 ml formulated per kg seed, 3 days after sowing
[15] = 10 ml formulated per kg seed, 7 days after sowing
[16] = 10 ml formulated per kg seed, 10 days after sowing
[17] = 10 ml formulated per kg seed, 14 days after sowing

Compound `O=CC=Cc1ccccc1` [cinnamaldehyde] has a Percentage germinated ([1]; 2 ml formulated per kg seed) of 25%, a Percentage germinated ([1]; 4 ml formulated per kg seed) of 0% and a Percentage germinated ([1]; 10 ml formulated per kg seed) of 0%. The “number of utilizable plants after 14 days” value (“number of utilizable plants” for short) ([2]; 2 ml formulated per kg seed) was 6.8, the “percentage of damaged seeds after 14 days” value (“percentage of damaged seeds” below) ([2]; 2 ml formulated per kg seed) was 64% and the “Mean number of damaged seeds per pot” value [2, 3] was 2.0. The “Mean number of dead slugs per pot” value [2, 3] was 0, the “Mean number fecal pellets per pot” value [2, 4] was 47 and the “Mean number of damaged seeds per pot” value [2, 4] was 5.5. The “Mean number of dead slugs per pot” value [2, 4] was 1.3, the “Mean number of plants present per pot” value [2, 4] was 3.3 and the “Mean number fecal pellets per pot” value [2, 5] was 71. For the same compound, the “Mean number of damaged seeds per pot” value [2, 5] was 24.5, the “Mean number of dead slugs per pot” value [2, 5] was 1.3 and the “Mean number of plants present per pot” value [2, 5] was 5.0. For the same compound, the “Mean number fecal pellets per pot” value [2, 6] was 80, the “Mean number of damaged seeds per pot” value [2, 6] was 24.8 and the “Mean number of dead slugs per pot” value [2, 6] was 1.3. The “Mean number of plants present per pot” value [2, 6] was 6.8, the “Mean number fecal pellets per pot” value [2, 7] was 95 and the “Mean number of damaged seeds per pot” value [2, 7] was 25.8. For the same compound, the “Mean number of dead slugs per pot” value [2, 7] was 1.8, the “Mean number of plants present per pot” value [2, 7] was 6.8 and the “number of utilizable plants” value ([2]; 4 ml formulated per kg seed) was 0.5. The “percentage of damaged seeds” value ([2]; 4 ml formulated per kg seed) was 73%, the “Mean number of damaged seeds per pot” value [2, 8] was 3.3 and the “Mean number of dead slugs per pot” value [2, 8] was 0. The “Mean number fecal pellets per pot” value [2, 9] was 46, the “Mean number of damaged seeds per pot” value [2, 9] was 6.5 and the “Mean number of dead slugs per pot” value [2, 9] was 0. For the same compound, the “Mean number of plants present per pot” value [2, 9] was 3.0, the “Mean number fecal pellets per pot” value [2, 10] was 111 and the “Mean number of damaged seeds per pot” value [2, 10] was 26.5. The “Mean number of dead slugs per pot” value [2, 10] was 0.3, the “Mean number of plants present per pot” value [2, 10] was 1.3 and the “Mean number fecal pellets per pot” value [2, 11] was 152. For the same compound, the “Mean number of damaged seeds per pot” value [2, 11] was 27.0, the “Mean number of dead slugs per pot” value [2, 11] was 0.3 and the “Mean number of plants present per pot” value [2, 11] was 1.8. For the same compound, the “Mean number fecal pellets per pot” value [2, 12] was 160, the “Mean number of damaged seeds per pot” value [2, 12] was 29.0 and the “Mean number of dead slugs per pot” value [2, 12] was 0.8. The “Mean number of plants present per pot” value [2, 12] was 0.8, the “number of utilizable plants” value ([2]; 10 ml formulated per kg seed) was 0.5 and the “percentage of damaged seeds” value ([2]; 10 ml formulated per kg seed) was 37%. The “Mean number of damaged seeds per pot” value [2, 13] was 4.0, the “Mean number of dead slugs per pot” value [2, 13] was 0 and the “Mean number fecal pellets per pot” value [2, 14] was 54. For the same compound, the “Mean number of damaged seeds per pot” value [2, 14] was 7.0, the “Mean number of dead slugs per pot” value [2, 14] was 1.3 and the “Mean number of plants present per pot” value [2, 14] was 5.0. The “Mean number fecal pellets per pot” value [2, 15] was 58, the “Mean number of damaged seeds per pot” value [2, 15] was 10.3 and the “Mean number of dead slugs per pot” value [2, 15] was 1.3. The “Mean number of plants present per pot” value [2, 15] was 0.3, the “Mean number fecal pellets per pot” value [2, 16] was 77 and the “Mean number of damaged seeds per pot” value [2, 16] was 10.3. For the same compound, the “Mean number of dead slugs per pot” value [2, 16] was 1.3, the “Mean number of plants present per pot” value [2, 16] was 0.5 and the “Mean number fecal pellets per pot” value [2, 17] was 93. The “Mean number of damaged seeds per pot” value [2, 17] was 14.8, the “Mean number of dead slugs per pot” value [2, 17] was 1.3 and the “Mean number of plants present per pot” value [2, 17] was 0.8. The “dead slugs relative to the untreated seed” value ([2]; Example 1, 2 or 10 ml per kg of seed, 3 days after the start) was “significantly more dead slugs”, the “damaged seeds relative to the untreated seed” value ([2]; Example 1, all dosages (2, 4, 10 ml/kg), after 3 and 7 days) was “significantly less damaged seeds” and the “protection / slug controlling effect (conclusion)” value ([2]; Example 1, winter wheat seed treatment, dosages tested) was “no protection to the plant”.
